Structures can show the parent of a compound that is named as a salt. Where two headings read alike, the source gives them in different places.
How the values were obtained:
[1] = system: Trypanosoma brucei brucei; assay: In vitro antiprotozoal activity against Trypanosoma brucei brucei; assay type: cell-based
Procedure: (§1) In vitro antiprotozoal activities, see Ismail, M. A., et al., J. Med. Chem. 46, 4761-4769 (2003), and cytotoxicity were measured following established protocols, see Balz, T., et al., EMBO J., 4, 1273-1277 (1985); Räz. B., et al., Acta Trop., 68:139-147 (1997); and Sperandeo, N. R. et al., Chem. Biochem., 4, 69-73 (2003). […] Other positive controls employed were melarsoprol (against T. brucei), chloroquine, and artemisinin (against P. falciparum), and podophyllotoxin (against VERO cells).

Plasmodium falciparum = assay: In vitro antiprotozoal activity against Plasmodium falciparum; assay type: cell-based; details: Plasmodium falciparum
Procedure: as §1

[2] = Cytotoxicity to VERO cells; assay type: cell-based, African green monkey (Cercopithecus Aethiops); details: African green monkey (Cercopithecus aethiops)
Procedure: as §1

[3] = Trypanosoma brucei, Table 1, read-out: IC50 (μM) Trypanosoma brucei brucei
[4] = Table 1, read-out: IC50 (μM) Plasmodium falciparum
[5] = IC50 (μM) Cytotoxicity VERO cells
[6] = Trypanosoma brucei, read-out: IC50 values against T. brucei brucei
[7] = read-out: antiplasmodial IC50 values (P. falciparum)

For `COc1ccc(C(=N)NC(C)C)cc1-c1cc(-c2cc(C(=N)NC(C)C)ccc2OC)on1.Cl.Cl` [Compound 42, 3,5-Bis[5-(N-isopropyl)amidino-2-methoxyphenyl]isoxazole dihydrochloride], the IC50 [1, 3] was 0.374 µM, the IC50 (Plasmodium falciparum; [4]) was 0.0932 µM and the IC50 [2, 5] was 21.7 µM. For the same molecule, the melting point was 185 °C (dec.).

For `Cl.Cl.N=C(N)c1ccc(-c2cc(-c3ccc(C(=N)N)cc3[N+](=O)[O-])no2)cc1` [Compound 9, 3-(4-Amidino-2-nitrophenyl)-5-(4-amidinophenyl)isoxazole dihydrochloride], the IC50 [1, 3] was 0.0324 µM, the IC50 (Plasmodium falciparum; [4]) was 0.0401 µM and the IC50 [2, 5] was 22.2 µM. For the same molecule, the melting point was 350 °C (dec.).

`N=C(N)c1ccc(-c2cc(-c3ccccc3)on2)cc1` [Compound 2, 3-(4-Amidinophenyl)-5-phenylisoxazole] gave an IC50 [1, 3] of 1.12 µM, an IC50 (Plasmodium falciparum; [4]) of 3.3 µM and an IC50 [2, 5] of 18.5 µM.

Work on `Cl.N=C(N)c1ccc(-c2cc(-c3ccccc3)no2)cc1` [Compound 1, 5-(4-Amidinophenyl)-3-phenylisoxazole hydrochloride] yielded an IC50 [1, 3] of 1.72 µM, an IC50 (Plasmodium falciparum; [4]) of 3.3 µM and an IC50 [2, 5] of 19.1 µM. The melting point was 262 to 265 °C.

Molecule `N=C(N)c1ccc(-c2cc(-c3ccc(C(=N)N)cc3)on2)cc1` [Compound 3, 3,5-Bis(4-amidinophenyl)isoxazole dihydrochloride] has an IC50 [1, 3] of 0.0051 µM, an IC50 [1, 6] of 0.0035 to 0.009 µM and an IC50 ([1]; dihydrochloride, read-out: IC50 values against T. brucei brucei) of 0.0051 µM. The IC50 (Plasmodium falciparum; [4]) was 0.0226 µM and the IC50 [2, 5] was 2.13 µM.

With `Cl.Cl.N=C(N)c1ccc(-c2cc(-c3cccc(C(=N)N)c3)on2)cc1` [Compound 22, 3-(4-Amidinophenyl)-5-(3-amidinophenyl)isoxazole di hydrochloride] the IC50 [1, 3] was 0.0035 µM, the IC50 [1, 6] was 0.0035 to 0.009 µM and the IC50 (Plasmodium falciparum; [4]) was 0.0025 µM. For the same molecule, the IC50 [2, 5] was 31.2 µM and the melting point was 336 to 338 °C.

With `Cl.Cl.N=C(N)c1ccc(-c2cc(-c3cc(C(=N)N)ccc3Cl)no2)cc1` [Compound 20, 3-(5-Amidino-2-chlorophenyl)-5-(4-amidinophenyl)isoxazole dihydrochloride] the IC50 [1, 3] was 0.0212 µM, the IC50 (Plasmodium falciparum; [4]) was 0.0071 µM and the IC50 (Plasmodium falciparum; [7]) was < 0.008 µM. The IC50 [2, 5] was 5.67 µM and the melting point was 348 °C.

In the case of `COc1cc([C@@H]2c3cc4c(cc3[C@H](O)[C@H]3COC(=O)[C@H]23)OCO4)cc(OC)c1OC` [Podophyllotoxin, reference compound], the IC50 ([2]; Table 1, read-out: IC50 (μM) Cytotoxicity VERO cells) is reported as 0.0186 µM.

`N=C(N)c1cccc(-c2cc(-c3cc(C(=N)N)ccc3Cl)no2)c1` [Compound 39, 3-(5-Amidino-2-chlorophenyl)-5-(3-amidinophenyl)isoxazole dihydrochloride] gave an IC50 [1, 3] of 0.0463 µM, an IC50 (Plasmodium falciparum; [4]) of 0.0306 µM and an IC50 [2, 5] of 55.5 µM.

`N=C(N)c1ccc(-c2cc(-c3ccc(C(=N)N)cc3Cl)no2)cc1` [Compound 10, 3-(4-Amidino-2-chlorophenyl)-5-(4-amidinophenyl)isoxazole dihydrochloride] showed an IC50 [1, 3] of 0.0232 µM, an IC50 (Plasmodium falciparum; [4]) of 0.0555 µM and an IC50 [2, 5] of 5.69 µM.

With `N=C(N)c1ccc(-c2cc(-c3cccc(C(=N)N)c3)no2)cc1` [Compound 13, 3-(3-Amidinophenyl)-5-(4-amidinophenyl)isoxazole dihydrochloride] the IC50 [1, 3] was 0.0063 µM, the IC50 [1, 6] was 0.0035 to 0.009 µM and the IC50 (Plasmodium falciparum; [4]) was 0.0578 µM. The IC50 (Plasmodium falciparum; [7]) was 0.0578 µM and the IC50 [2, 5] was 24.1 µM.

For `C[C@@H]1CC[C@H]2[C@@H](C)C(=O)O[C@@H]3O[C@@]4(C)CC[C@@H]1[C@]32OO4` [Artemisinin, reference compound], the IC50 (Plasmodium falciparum; [4]) was 0.0067 µM.

`Nc1nc(N)nc(Nc2ccc([As]3SCC(CO)S3)cc2)n1` (stereo not shown) [Melarsoprol, reference compound] gave an IC50 ([1]; Trypanosoma brucei, read-out: IC50 (μM) Trypanosoma brucei brucei) of 0.00637 µM.

`N=C(N)c1ccc(-c2cc(-c3ccccc3)on2)cc1` (as salt: hydrochloride) [Compound 2, 3-(4-Amidinophenyl)-5-phenylisoxazole] gave a melting point of 287 to 292 °C.

Work on `CCN(CC)CCCC(C)Nc1ccnc2cc(Cl)ccc12` (stereo not shown) [Chloroquine, reference compound] yielded an IC50 (Plasmodium falciparum; read-out: IC50 (μM) Plasmodium falciparum) of 0.104 µM.
